From patent US6924285B2, “Bicyclic heterocyclic compounds, pharmaceutical compositions containing these compounds, their use and process for preparing them” (Boehringer Ingelheim Pharma GmbH & Co., priority 2002, dated 2005)

Tests used:
[1] = biological target: T1, human EGF-receptor kinase (Homo sapiens, UniProt P00533); test: Inhibition of human EGF-receptor kinase (enzyme assay, ELISA read-out); format: biochemical; conditions: cytoplasmic tyrosine kinase domain as GST fusion protein, substrate pEY/bio-pEY, 30 minutes at ambient temperature
T1 construct: GST; made in house; host or cells: Sf9 insect cells (baculovirus)
Procedure: The inhibition of human EGF-receptor kinase was determined using the cytoplasmic tyrosine kinase domain (methionine 664 to alanine 1186 based on the sequence published in Nature 309 (1984), 418). For this the protein was expressed in Sf9 insect cells as GST fusion protein using the Baculovirus expression system.
The enzyme activity was measured in the presence or absence of the test compounds in serial dilutions. The polymer pEY (4:1) obtained from SIGMA was used as the substrate. Biotinylated pEY (bio-pEY) was added as the tracer substrate. 100 μl of reaction solution contained 10 μl of the inhibitor in 50% DMSO, 20 μl of the substrate solution (200 mM HEPES pH 7.4, 50 mM magnesium acetate, 2.5 mg/ml poly(EY), 5 μg/ml bio-pEY) and 20 μl of enzyme preparation. The enzyme reaction was started by the addition of 50 μl of a 100 μM ATP solution in 10 mM of magnesium chloride. The dilution of the enzyme preparation was adjusted so that the incorporation of phosphate in the bio-pEY was linear in terms of time and quantity of enzyme. The enzyme preparation was diluted in 20 mM HEPES pH 7.4, 1 mM EDTA, 130 mM common salt, 0.05% Triton X-100, 1 mM DTT and 10% glycerol.
The enzyme assays were carried out at ambient temperature over a period of 30 minutes and ended by the addition of 50 μl of a stopping solution (250 mM EDTA in 20 mM HEPES pH 7.4). 100 μl were placed on a streptavidine-coated microtitre plate and incubated for 60 minutes at ambient temperature. Then the plate was washed with 200 μl of a wash solution (50 mM Tris, 0.05% Tween 20). After the addition of 100 μl of an HRPO-labelled anti-PY antibody (PY20H Anti-PTyr:HRP made by Transduction Laboratories, 250 ng/ml) the preparation was incubated for 60 minutes. Then the microtitre plate was washed three times with 200 μl of wash solution. The samples were then combined with 100 μl of a TMB-peroxidase solution (A:B=1:1, Kirkegaard Perry Laboratories). After 10 minutes the reaction was stopped. The extinction was measured at OD450 nm with an ELISA reader. All the results were measured three times.
The data were adapted by iterative calculation using an analytical pogramme for sigmoidal curves (Graph Pad Prism Version 3.0) with a variable Hill pitch. […] The active substance concentration which inhibits the activity of EGF receptor kinase by 50% (IC50) was derived from the curves.

T1 sequence (P00533 688-1210): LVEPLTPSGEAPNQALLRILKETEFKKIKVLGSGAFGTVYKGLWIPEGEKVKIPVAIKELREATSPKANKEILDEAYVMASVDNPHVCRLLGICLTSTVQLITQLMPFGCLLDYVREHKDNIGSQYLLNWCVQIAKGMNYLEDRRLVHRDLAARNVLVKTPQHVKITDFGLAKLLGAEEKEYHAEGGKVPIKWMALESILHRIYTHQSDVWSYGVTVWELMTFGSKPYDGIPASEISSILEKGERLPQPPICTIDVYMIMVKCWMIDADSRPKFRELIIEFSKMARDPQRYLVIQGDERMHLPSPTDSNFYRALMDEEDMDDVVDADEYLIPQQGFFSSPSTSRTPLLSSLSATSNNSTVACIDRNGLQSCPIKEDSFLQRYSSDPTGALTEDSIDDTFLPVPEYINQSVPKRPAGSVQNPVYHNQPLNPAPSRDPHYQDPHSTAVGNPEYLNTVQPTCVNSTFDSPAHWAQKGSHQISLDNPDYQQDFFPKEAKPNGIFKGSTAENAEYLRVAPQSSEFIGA

IC50 [1]: 4.5 nM
melting point: 232 °C
Compound: COc1cc2ncnc(Nc3ccc(F)c(Cl)c3)c2cc1O[C@H]1CC[C@@H](N)CC1 [Example 2, 4-[(3-chloro-4-fluoro-phenyl)amino]-6-(cis-4-amino-cyclohexan-1-yloxy)-7-methoxy-quinazoline x Trifluoroacetic Acid]
